Experimental data: PMC2738925 (Transplantation, 2009)

Target: T1, mouse CXCR3 (Mus musculus, UniProt O88410)
T1 sequence (O88410 1-367): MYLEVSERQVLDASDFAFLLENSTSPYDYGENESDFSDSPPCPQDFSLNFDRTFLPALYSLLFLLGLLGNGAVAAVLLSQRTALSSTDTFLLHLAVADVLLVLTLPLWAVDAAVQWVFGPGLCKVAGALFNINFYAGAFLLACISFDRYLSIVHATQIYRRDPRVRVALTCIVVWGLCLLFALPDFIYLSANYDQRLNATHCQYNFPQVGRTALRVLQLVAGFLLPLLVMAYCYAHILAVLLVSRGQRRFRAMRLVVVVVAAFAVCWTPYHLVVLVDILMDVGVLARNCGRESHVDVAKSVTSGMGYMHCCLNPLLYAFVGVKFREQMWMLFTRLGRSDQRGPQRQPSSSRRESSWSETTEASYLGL
Assay: […]-CXCL10 radioligand displacement on HEK […] cells transfected with mouse CXCR3
Format: cell-based

With AMG1237845 the IC50 was 53 ± 7 nM.
